Here are results for two compounds from patent publication US4181657A, “2-Aminooctahydroindolo[2,3-a]quinolizines useful in treating cardiovascular disorders” (Miles Laboratories, Inc., priority 1978, dated 1980).

Common to all, as to assay type: in vivo
The test system of assay [1] is ventricular arrhythmia produced by chloroform. Kind of assay: Antiarrhythmic activity: protection from chloroform-induced ventricular arrhythmia in mice (Lawson model). The settings on record: mouse; for ED50: ip, 10 min, i.p., 10 min before chloroform, 95% confidence limits in parentheses, read-out: ED50 (95% C.L.); for mice protected of 5: 31 mg/kg i.p. On the procedure:
The antiarrhythmic activity of the compounds of this invention was determined in the experimental model described by J. W. Lawson (J. Pharmacol. Exper. Therap. 160:22-31, 1968). Test compounds were administered to groups of 5 mice at an intraperitoneal dose of 31 mg/kg. Ten minutes after injection each mouse was placed in a covered 300 ml glass beaker which contained cotton saturated with chloroform. The animal was observed closely and removed from the beaker immediately after respiratory arrest. The heart was quickly exposed by making an incision through the abdomen, diaphragm, thorax and pericardium for visual inspection of ventricular rate and rhythm. Ventricular contractions were counted for 30 seconds and animals with a rate not exceeding 100 beats per 30 seconds were considered protected from the ventricular arrhythmia produced by chloroform. Compounds protecting at least 3 of the 5 mice were subsequently tested at various doses and the results obtained were used to calculate the mean effective doses (ED50) and 95% confidence limits after the method of Litchfield and Wilcoxon (J. Pharmacol. Exper. Therap. 96:99-113, 1949). Table A presents the results obtained in the antiarrhythmic study.

Another assay relates to dog heart in situ. Kind of assay: Antianginal activity: aortic-coronary sinus difference in oxygen (myocardial oxygen consumption) in anesthetized dogs. The note with it: 1 mg/kg i.v.; for antianginal activity (conclusion in words): based upon comparison with nitroglycerin, named compounds 'particularly'. Here is the method: Angina pectoris is a clinical condition of hypoxia that results from an imbalance in myocardial oxygen supply and demand. A drug reducing oxygen demand is useful in the treatment of angina pectoris, as has been the case with nitroglycerin and the beta-adrenergic blocking agents like propranolol (J. R. Paratt, Advan. Drug Res. 9:103-134, 1974). Accordingly,the antianginal activity of 2-substituted indoloquinolizines was evaluated by assessing their capacity to reduce oxygen consumption by the dog heart in situ. This method allows measurement of the difference in oxygen content of the arterial and venous blood.
Mongrel dogs were anesthetized with pentobarbital and cannulas inserted in the trachea and in a femoral vein for artificial respiration with room air and for injection of test compounds, respectively. Heparin was administered intravenously to prevent blood clotting. The chest was opened at the sternal midline and an additional cannula introduced in the coronary sinus. Samples of blood were obtained from the coronary sinus cannula and from the thoracic aorta by direct puncture of the vessel. Partial pressure of oxygen in the samples was determined with a blood gas analyzer. Test compounds were injected intravenously at a dose of 1 mg/kg; oxygen measurements were made before administration and at 1, 5, 10, 20, 30, 40, 50 and 60 min after administration. One animal was used per test compound. As the standard of comparison, nitroglycerin was administered to a test animal and measurements were made in a similar manner.
Differences between partial pressure values in arterial and venous blood samples were calculated for each measurement. Since coronary sinus blood is representative of the venous effluent from the heart, these differences reflect the consumption of oxygen by the myocardium. Thus, the decrease in arteriovenous oxygen difference produced by the compounds by this invention indicates a reduction in myocardial oxygen consumption.

Another assay relates to Systolic Blood Pressure. The experiment in a line: Antihypertensive activity: indirect systolic blood pressure in renal hypertensive rats. The settings on record: rat, 31 mg/kg p.o., * in table = statistically significant change from control. On the procedure: Rats were made hypertensive by applying a figure of eight ligature to one kidney and removing the contralateral kidney two weeks later. At least four weeks after the second operation the animals were subjected to indirect systolic blood pressure measurements with an occluding cuff and pulse sensor system applied to the tail. Pressure measurements were made before and 1,2,4,6 and 8 hours after oral administration of the test compounds at a dose of 31 mg/kg. Each compound was tested in 5 or 10 rats. Statistical significance of differences between control and post treatment values was determined by Wilcoxon's signed rank test (F. Wilcoxon and R. A. Wilcox, Some Rapid Approximate Statistical Procedures, Lederle Laboratories, Pearl River, 1964).

By ED50 is commonly meant the dose that gives a 50% effect, or the effect in half of the subjects. For `Brc1cccc(NC2CCN3CCc4c(n(Cc5ccccc5)c5ccccc45)C3C2)c1.Cl` (centres unmarked) [TR3014, 12-benzyl-2-(3-bromoanilino)-1,2,3,4,6,7,12,12b-octahydroindolo[2,3-a]quinolizine hydrochloride], in assay [1], the ED50 came to 32 mg/kg and the “mice protected of 5” value was “at least 3 of 5 mice”. Further, in the assay with dog heart in situ, the “Arterio-Venous Difference in Oxygen Partial Pressure at 1 min” value is listed as 17 mmHg, the “Arterio-Venous Difference in Oxygen Partial Pressure at 5 min” value came out at 18 mmHg, the “Arterio-Venous Difference in Oxygen Partial Pressure at 10 min” value came to 26 mmHg and the “Arterio-Venous Difference in Oxygen Partial Pressure at 20 min” value worked out at 25 mmHg. In the assay on dog heart in situ, the “Arterio-Venous Difference in Oxygen Partial Pressure at 30 min” value came out at 26 mmHg, the “Arterio-Venous Difference in Oxygen Partial Pressure at 40 min” value is 26 mmHg, the “Arterio-Venous Difference in Oxygen Partial Pressure at 50 min” value turned out to be 26 mmHg and the “Arterio-Venous Difference in Oxygen Partial Pressure at 60 min” value is on record as 24 mmHg. Besides, in the assay on dog heart in situ, the “antianginal activity (conclusion in words)” value is on record as “antianginal activity is seen”. In the assay with Systolic Blood Pressure, the “Change in Systolic Blood Pressure at 1 hr” value is “+1 mmHg”, the “Change in Systolic Blood Pressure at 2 hr” value is -16 mmHg, the “Change in Systolic Blood Pressure at 4 hr” value is listed as -2 mmHg and the “Change in Systolic Blood Pressure at 6 hr” value came to 0 mmHg. The “Change in Systolic Blood Pressure at 8 hr” value in the assay on Systolic Blood Pressure is listed as -3 mmHg.

With `CC(C)NC1CCN2CCc3c(n(Cc4ccccc4)c4ccccc34)C2C1.Cl.Cl.O` (centres unmarked) [TR3687, 12-benzyl-2-isopropylamino-1,2,3,4,6,7,12,12b-octahydroindolo[2,3-a]quinolizine dihydrochloride monohydrate], in assay [1], the median effective dose (ED50) was found to be 19 mg/kg and the “mice protected of 5” value is reported as “at least 3 of 5 mice”. Also, in the assay on dog heart in situ, the “Arterio-Venous Difference in Oxygen Partial Pressure at 1 min” value was determined as 15 mmHg, the “Arterio-Venous Difference in Oxygen Partial Pressure at 5 min” value came out at 22 mmHg, the “Arterio-Venous Difference in Oxygen Partial Pressure at 10 min” value is 23 mmHg and the “Arterio-Venous Difference in Oxygen Partial Pressure at 20 min” value is reported as 20 mmHg. Also, in the assay with dog heart in situ, the “Arterio-Venous Difference in Oxygen Partial Pressure at 30 min” value is 20 mmHg, the “Arterio-Venous Difference in Oxygen Partial Pressure at 40 min” value was 20 mmHg, the “Arterio-Venous Difference in Oxygen Partial Pressure at 50 min” value came to 23 mmHg and the “Arterio-Venous Difference in Oxygen Partial Pressure at 60 min” value is given as 23 mmHg. In the assay with dog heart in situ, the “antianginal activity (conclusion in words)” value was “antianginal activity is seen”. For the same compound, in the assay on Systolic Blood Pressure, the “Change in Systolic Blood Pressure at 1 hr” value is on record as -2 mmHg, the “Change in Systolic Blood Pressure at 2 hr” value is on record as “+16 mmHg”, the “Change in Systolic Blood Pressure at 4 hr” value is “+18 mmHg” and the “Change in Systolic Blood Pressure at 6 hr” value is on record as “+18 mmHg”. The “Change in Systolic Blood Pressure at 8 hr” value in the assay with Systolic Blood Pressure was “+9 mmHg”.
